For the assay, the system named is BDF1 mice, P288 leukemia ip, survival T/C. The assay can be described thus: NCI In Vivo Anticancer Drug Screen. Data for tumor model P288 Lymphocytic Leukemia (intraperitoneal) in B6D2F1 (BDF1) mice. Conditions: endpoint: survival time, mean or median, higher = longer survival. Here is the method: The antitumor activity of compounds was measured in mice bearing transplantable tumors. Survival or tumor size were measured and the results are expressed as the measurement made in the treated group (T) divided by the measurement made in the vehicle treated control group (C). The tumor model used in this assay is P288 Lymphocytic Leukemia (intraperitoneal) in B6D2F1 (BDF1) mice

Where [1] appears, read: dose: 25.0 mg/kg/injection, schedule: Q01DX010 (ip), vehicle: saline.
Setting [2] is: dose: 50.0 mg/kg/injection, schedule: Q01DX010 (ip), vehicle: saline.
[3] abbreviates: dose: 100.0 mg/kg/injection, schedule: Q01DX010 (ip), vehicle: saline.
[4] abbreviates: dose: 50.0 mg/kg/injection, schedule: Q01DX Z (ip), vehicle: other.
The mark [5] stands for this setting: dose: 100.0 mg/kg/injection, schedule: Q01DX Z (ip), vehicle: other.
[6] abbreviates: dose: 200.0 mg/kg/injection, schedule: Q01DX Z (ip), vehicle: other.
Where [7] appears, read: dose: 400.0 mg/kg/injection, schedule: Q01DX Z (ip), vehicle: other.
[8] abbreviates: dose: 25.0 mg/kg/injection, schedule: Q01DX Z (ip), vehicle: carboxymethylcellulose (CMC).
Where [9] appears, read: dose: 5.0 mg/kg/injection, schedule: Q01DX010 (ip), vehicle: saline.
[10] abbreviates: dose: 10.0 mg/kg/injection, schedule: Q01DX010 (ip), vehicle: saline.
Where [11] appears, read: dose: 20.0 mg/kg/injection, schedule: Q01DX010 (ip), vehicle: saline.
[12] abbreviates: dose: 40.0 mg/kg/injection, schedule: Q01DX010 (ip), vehicle: saline.

Several values for one entry are separate records, joined by “and”; a condition that tells them apart may be missing. Equal values may be shown once. Inconclusive results and toxic doses are left out.

We go through twelve molecules from PubChem BioAssay AID216 (DTP/NCI, 2004).

Regarding `CCN(CC)CCNc1ccc(C)c2sc3ccccc3c(=O)c12`, the T/C is 110 % of control under setting [1]; 205 % of control under setting [2]; 155 % of control (dose: 51.0 mg/kg/injection, schedule: Q01DX010 (ip), vehicle: saline); 180 % of control under setting [3].
In the case of `CCN(CCNc1ccc(C)c2sc3cc(Cl)ccc3c(=O)c12)CC(C)O` (stereo not drawn), the T/C is, setting by setting: (dose: 31.3 mg/kg/injection, schedule: Q01DX010 (ip), vehicle: saline) 112 % of control; (dose: 62.5 mg/kg/injection, schedule: Q01DX010 (ip), vehicle: saline) 94 % of control; (dose: 125.0 mg/kg/injection, schedule: Q01DX010 (ip), vehicle: saline) 105 % of control; (dose: 250.0 mg/kg/injection, schedule: Q01DX010 (ip), vehicle: saline) 118 % of control and 94 % of control.
As to `S=c1nc[nH]c2nc[nH]c12`, the T/C by setting is: (dose: 5.0 mg/kg/injection, schedule: Q01DX010 (ip), vehicle: alkali diluted with saline) 92 % of control; (dose: 10.0 mg/kg/injection, schedule: Q01DX010 (ip), vehicle: alkali diluted with saline) 94 % of control; (dose: 12.5 mg/kg/injection, schedule: Q01DX Z (ip), vehicle: other) 97 % of control; (dose: 20.0 mg/kg/injection, schedule: Q01DX010 (ip), vehicle: alkali diluted with saline) 86 % of control and 100 % of control; (dose: 25.0 mg/kg/injection, schedule: Q01DX Z (ip), vehicle: other) 93 % of control and 100 % of control; (dose: 40.0 mg/kg/injection, schedule: Q01DX010 (ip), vehicle: alkali diluted with saline) 110 % of control and 86 % of control. For the same molecule, the T/C is 102 % of control and 94 % of control under setting [4]; 117 % of control and 86 % of control (dose: 80.0 mg/kg/injection, schedule: Q01DX010 (ip), vehicle: alkali diluted with saline); 105 % of control and 118 % of control under setting [5]; 106 % of control and 100 % of control under setting [6]; 89 % of control under setting [7].
Take `C=C1C[C@H]2[C@@H]3C=C(C)C4=CC(=O)CC[C@]4(C)[C@H]3CC[C@]2(C)[C@@]1(OC(C)=O)C(C)=O`: the T/C by setting is: (dose: 62.5 mg/kg/injection, schedule: Q01DX010 (sc), vehicle: steriod suspending solution) 88 % of control; (dose: 125.0 mg/kg/injection, schedule: Q01DX010 (sc), vehicle: steriod suspending solution) 94 % of control.
Regarding `Nc1nc(N)c2nc(CNc3ccc(C(=O)NC(CCC(=O)O)C(=O)O)cc3)cnc2n1` (stereo not drawn), the T/C by setting is: (dose: 0.05 mg/kg/injection, schedule: Q01DX010 (ip), vehicle: other) 100 % of control; (dose: 0.1 mg/kg/injection, schedule: Q01DX010 (ip), vehicle: other) 116 % of control; (dose: 0.2 mg/kg/injection, schedule: Q01DX010 (ip), vehicle: other) 177 % of control; (dose: 0.4 mg/kg/injection, schedule: Q01DX010 (ip), vehicle: other) 194 % of control.
Consider `N#CCSc1ncnc2nc[nH]c12`, for which the T/C was 97 % of control (dose: 12.5 mg/kg/injection, schedule: Q01DX Z (ip), vehicle: carboxymethylcellulose (CMC)); 95 % of control under setting [8]; 94 % of control (dose: 30.0 mg/kg/injection, schedule: Q01DX010 (ip), vehicle: saline); 114 % of control and 95 % of control (dose: 50.0 mg/kg/injection, schedule: Q01DX Z (ip), vehicle: carboxymethylcellulose (CMC)); 88 % of control (dose: 60.0 mg/kg/injection, schedule: Q01DX010 (ip), vehicle: saline); 100 % of control (dose: 120.0 mg/kg/injection, schedule: Q01DX010 (ip), vehicle: saline).
As to `O=C1CCC(N2C(=O)c3ccccc3C2=O)C(=O)N1` (stereo not drawn), the T/C (dose: 18.75 mg/kg/injection, schedule: Q01DX Z (ip), vehicle: carboxymethylcellulose (CMC)) was 91 % of control; the T/C (dose: 37.5 mg/kg/injection, schedule: Q01DX Z (ip), vehicle: carboxymethylcellulose (CMC)) was 94 % of control; the T/C (dose: 75.0 mg/kg/injection, schedule: Q01DX Z (ip), vehicle: carboxymethylcellulose (CMC)) is 97 % of control; the T/C (dose: 150.0 mg/kg/injection, schedule: Q01DX Z (ip), vehicle: carboxymethylcellulose (CMC)) is 101 % of control and 88 % of control; the T/C (dose: 300.0 mg/kg/injection, schedule: Q01DX Z (ip), vehicle: carboxymethylcellulose (CMC)) is 94 % of control; the T/C (dose: 600.0 mg/kg/injection, schedule: Q01DX Z (ip), vehicle: carboxymethylcellulose (CMC)) is 87 % of control.
Regarding `O=c1[nH]c(=O)n(C2CC(O)C(CO)O2)cc1F` (stereo not drawn), the T/C runs as follows: under setting [9], 106 % of control; under setting [10], 109 % of control and 100 % of control; under setting [11], 112 % of control and 100 % of control; under setting [8], 111 % of control; under setting [12], 113 % of control; (dose: 80.0 mg/kg/injection, schedule: Q01DX010 (ip), vehicle: saline) 118 % of control. In addition, the T/C was 156 % of control and 163 % of control (dose: 100.0 mg/kg/injection, schedule: Q01DX Z (ip), vehicle: carboxymethylcellulose (CMC)); 111 % of control and 124 % of control (dose: 200.0 mg/kg/injection, schedule: Q01DX Z (ip), vehicle: carboxymethylcellulose (CMC)); 108 % of control (dose: 400.0 mg/kg/injection, schedule: Q01DX Z (ip), vehicle: carboxymethylcellulose (CMC)); 86 % of control (dose: 800.0 mg/kg/injection, schedule: Q01DX Z (ip), vehicle: carboxymethylcellulose (CMC)).
`Cc1n[nH]c(=O)[nH]c1=O`: the T/C was 104 % of control under setting [4]; 101 % of control under setting [5]; 101 % of control and 110 % of control under setting [6]; 101 % of control and 110 % of control under setting [7]; 97 % of control (dose: 800.0 mg/kg/injection, schedule: Q01DX Z (ip), vehicle: other).
Turning to `CN(C)/N=N/c1nc[nH]c1C(N)=O`, the T/C is 100 % of control under setting [1]; 88 % of control under setting [2]; 94 % of control and 100 % of control under setting [3]; 100 % of control (dose: 200.0 mg/kg/injection, schedule: Q01DX010 (ip), vehicle: saline).
Take `O=c1cn[nH]c(=O)[nH]1`: the T/C was 113 % of control (dose: 5.0 mg/kg/injection, schedule: Q01DX Z (ip), vehicle: carboxymethylcellulose (CMC)); 101 % of control (dose: 10.0 mg/kg/injection, schedule: Q01DX Z (ip), vehicle: carboxymethylcellulose (CMC)); 113 % of control (dose: 20.0 mg/kg/injection, schedule: Q01DX Z (ip), vehicle: carboxymethylcellulose (CMC)); 104 % of control (dose: 125.0 mg/kg/injection, schedule: Q01DX Z (ip), vehicle: carboxymethylcellulose (CMC)); 108 % of control and 93 % of control (dose: 250.0 mg/kg/injection, schedule: Q01DX Z (ip), vehicle: carboxymethylcellulose (CMC)); 106 % of control (dose: 500.0 mg/kg/injection, schedule: Q01DX Z (ip), vehicle: carboxymethylcellulose (CMC)). The T/C (dose: 1000.0 mg/kg/injection, schedule: Q01DX Z (ip), vehicle: carboxymethylcellulose (CMC)) is 118 % of control.
On to `CC[n+]1c(-c2ccccc2)c2cc(N)ccc2c2ccc(N)cc21`, for which the T/C was 152 % of control (dose: 2.5 mg/kg/injection, schedule: Q01DX010 (ip), vehicle: saline); 170 % of control and 228 % of control under setting [9]; 223 % of control and 285 % of control under setting [10]; 158 % of control and 185 % of control under setting [11]; 100 % of control under setting [12].
